Experimental data published in patent publication US20120172375A1, “COMPOUNDS AND METHODS OF PROMOTING OLIGODENDROCYTE PRECURSOR DIFFERENTIATION” (priority 2008, published 2012).
Values joined by “and” are separate entries in the source; they are usually repeats but may differ in a detail not shown here. Equal values may be shown once. “Also recorded” adds a separate entry of the source.

How the values were obtained:
[1] = system: cuprizone-fed C57B1/6J mice; test: Myelin protein (PLP/DM20, MOG) immunostaining densitometry in cuprizone-demyelinated mice; assay type: in vivo; conditions: i.p., two doses
Method: (§1) For in vivo experiments in mice, the cuprizone-mediated demyelination model was implemented as described elsewhere, (Sun et al., 2006; Wu et al., 2008). In brief, 9 week-old C57B1/J6 mice were fed with cuprizone supplemented chow (0.3%, Harlan) during 4-6 weeks. At the end of this period, while the mice were still on cuprizone diet, the animals were injected I.P. with the indicated concentrations of small molecules dissolved in DMSO. 72 hrs later, a second dose was administered and at that point the food was changed to regular chow. 48 hr after the second dose, the animals were sacrificed perfused with 4% paraformaldehyde (PFH) and the brain tissue processed or immunohistochemistry.
Immunodetection of oligodendrocyte and myelin markers was performed. In brief, Oligodendrocyte cells plated on PDL-coated dishes were initially fixed in 2% paraformaldehyde (PFA) for 10 min at room temperature (RT) and then 4% PFA for 15 min, washed three times with PBS and permeabilized with 0.1% Triton X100 for 10 min at RT. After blocking with 3% BSA in PBS for 60 min a RT, the cells were incubated with primary antibodies at the indicated concentrations overnight (ON) at 4° C. The cells were washed three times with cold PBS incubated with secondary antibodies for 45 min at RT, and washed again before mounting. Immunostaining of tissue sections prepared with a sliding microtome (30 μm) was performed. In brief, tris buffered saline (TBS) containing 100 nM Sodium fluoride (TBSS) was used the all dilutions and washes. For antigen retrieval, sections were washed 3 times in TBSS, incubated in 5% methanol and 3% H2O2 for 10 min, washed 2 times, and then incubated in 10% Triton X-100 for 20 min. Blocking of unspecific bonds was performed by incubating the tissue sections with 10% NGS for 1 hr. Primary antibodies were diluted in 3% BSA containing 0.02% Triton X-100 and sections were incubated overnight in this solution. The next day the sections were washed 3 times in TBSS, followed by 1 hr incubation in secondary antibodies (1:1000) at 4° C. […]

[2] = system: oligodendrocyte progenitor cells; test: Cell toxicity and viability (MTT, cell death); assay type: cell-based, mouse; conditions: for cell toxicity and viability: concentrations below 50 μM
Method: Differentiation induced by selected compounds was further validated by fluorescence microscopy in cells generated from our Plp-EGFP transgenic mouse. Increased fluorescence in treated oligodendrocyte progenitor was indicative of cell maturation and was again scored following the same scale. 13 positive compounds were identified after secondary screening (FIG. 1). These were analyzed for cell toxicity assays by MTT were yellow 3-(4,5-Dimethylthiazol-2-yl)-2,5-diphenyltetrazolium bromide, a tetrazole (MTT) is reduced to purple formazan in the mitochondria of living cells, showing a solution color change measurable by OD620-590 (Data not shown). Further oligodendrocyte progenitor maturation in response to selected compounds was assessed by induction of myelin protein expression as determined by immunocytochemistry and western blot.

[3] = system: cuprizone-fed C57B1/6J mice; test: Remyelination after cuprizone-mediated demyelination, Black and Gold staining for total myelin; assay type: in vivo; conditions: i.p., two doses; for remyelination effect (Black and Gold stain, corpus callosum): 5-100 mg/kg
Method: as §1
Brain tissue staining with Black and Gold to detect total myelin was performed in 30 μm microtome floating sections after three washes in a saline solution (0.9% NaCl). Subsequently, the tissue sections were submerged in a 0.1% Black and Gold solution in saline preheated to 60° C. for 5 min. The tissue was incubated in that solution for 8-10 min. or until achievement of purple color was observed. After washing several times with saline, the staining was fixed with a solution of 2% sodium thiosulfate for 3 min., washed with saline three times and finally mounted and visualized.
Demyelination in mouse brain induced by the copper chelator cuprizone administered in the diet is a well established animal model to study demyelination and subsequent remyelination after cuprizone withdrawal. The effect of cuprizone is evident in several brain areas being the demyeliantion of the corpus callosum the most reliable and consistent. In this study, we analyzed the effect of compounds A, A-7 and B on remyelination of six week cuprizone-fed C57B1/6J mice. Compounds were administered i.p. at the end of the sixth week (5-100 mg/kg) while the mice were still maintained on the cuprizone diet for three more days. At that point, a second injection of compounds was performed and then the mice were returned to regular chow for two more days to allow the natural remyelination process to take place. Mice were then sacrificed and the brain tissue prepared for immunohistochemistry.

[4] = system: oligodendrocyte progenitor cells; test: Immunocytochemistry for PLP/DM20 and MBP, count of differentiated cells; assay type: cell-based, mouse; conditions: for cell morphology after long-term exposure: compound B at the lowest concentrations (0.1 μM)
Method: Immunodetection of oligodendrocyte and myelin markers was performed. In brief, Oligodendrocyte cells plated on PDL-coated dishes were initially fixed in 2% paraformaldehyde (PFA) for 10 min at room temperature (RT) and then 4% PFA for 15 min, washed three times with PBS and permeabilized with 0.1% Triton X100 for 10 min at RT. After blocking with 3% BSA in PBS for 60 min a RT, the cells were incubated with primary antibodies at the indicated concentrations overnight (ON) at 4° C. The cells were washed three times with cold PBS incubated with secondary antibodies for 45 min at RT, and washed again before mounting. Immunostaining of tissue sections prepared with a sliding microtome (30 μm) was performed. In brief, tris buffered saline (TBS) containing 100 nM Sodium fluoride (TBSS) was used the all dilutions and washes. For antigen retrieval, sections were washed 3 times in TBSS, incubated in 5% methanol and 3% H2O2 for 10 min, washed 2 times, and then incubated in 10% Triton X-100 for 20 min. Blocking of unspecific bonds was performed by incubating the tissue sections with 10% NGS for 1 hr. Primary antibodies were diluted in 3% BSA containing 0.02% Triton X-100 and sections were incubated overnight in this solution. The next day the sections were washed 3 times in TBSS, followed by 1 hr incubation in secondary antibodies (1:1000) at 4° C. After several washes, the sections were mounted using Vectashield (Vector Laboratories, Burlingame, Calif.). Visualization of immunostained cells and tissue was performed on a Leica DMR (Wetzlar, Germany) or a Leica SP5 confocal microscope.
The primary screening to select positive compounds was performed at a standard concentration of 10 μM with cell morphology analysis 48 hrs after treatment. Dose response curves at 48 hrs treatment time were performed to determine the minimum concentration compounds A, A-7 and B needed to induce cell maturation. We assessed oligodendrocyte differentiation by cell morphology changes, green fluorescence in cells generated from or Plp-EGFP transgenic mouse, immunostaining for myelin proteins and western blot for expression of the oligodendrocyte markers PLP/DM20 and 2′,3′, cyclic nucleotide 3′ phosphohydrolase (CNPase). EC50 values were also calculated based on results of western blot for myelin proteins and subsequent band densitometry analysis. Additionally, we followed cell differentiation induced over long time exposure to compounds A and B (7 days, 0.1-10 μM).
Compound A-7-induced oligodendrocyte progenitor maturation was also analyzed in comparison to control cells in immunostaining experiments to detect the myelin proteins MBP and PLP. Positive cells for these markers showing processes formation and membranous structures were counted versus total cells and counterstained with the nuclear dye Dapi after 48 hrs (Tables 3 and 4) and 7 days treatment with 0.1, 1 or 10 μM compound A-7 (FIG. 2, B).

CCS(=O)(=O)N1CCN(C(=O)COc2ccc(-c3ccccc3)cc2)CC1 [Compound A, 1-[(4-biphenylyloxy)acetyl]-4-(ethylsulfonyl)piperazine]
effect on myelin protein expression / remyelination enhancement [1]: recovery of myelin protein expression | cell toxicity and viability [2]: did not show significant detrimental effects | myelin levels relative to the non-cuprizone-fed animals (Black and Gold) ([3]; 100 mg/kg): 80% | remyelination effect (Black and Gold stain, corpus callosum) [3]: highly significant at the lowest administered dose (5 mg/kg); also recorded: enhance remyelination | immunostaining for PLP and MBP: expression of myelin proteins ([4]; 10 μM, 48 hr (FIG. 1)): increased expression | differentiated cells, percentage of total cells ([4]; 7 days after treatment, 0.1-10 μM, control 9.5%): about 25% | cell morphology after long-term exposure ([4]; 7 days after treatment): clear morphology changes; also recorded: formation of long-thick processes and major membranous structures | Differentiated Cells (IC, % of Control) ([4]; Table 3, 10 μM, 48 hrs): 186.1 ± 44.8 n = 4; p <0.05 % of Control | Differentiated Cells (IC, % of Control) ([4]; Table 4, 1 μM): 248.9 ± 47.5 % of Control | Differentiated Cells (IC, % of Control) ([4]; Table 4, 10 μM): 289.3 ± 66.6 % of Control

O=[N+]([O-])c1ccc(F)c(NS(=O)(=O)c2ccc(F)cc2)c1 [Compound B, 4-fluoro-N-(2-fluoro-5-nitrophenyl)benzenesulfonamide]
effect on myelin protein expression / remyelination enhancement [1]: did not detect any relevant effect | concentrations with toxic effect (induction of cell death) [2]: > 10 µM | concentrations with toxic effect (MTT cell viability) ([2]; MTT): higher than 1 μM | remyelination effect (Black and Gold stain, corpus callosum) [3]: did not detect a measurable induction of myelin recovery | cell morphology after long-term exposure ([4]; 7 days after treatment): clear morphology changes; also recorded: formation of long-thick processes and major membranous structures | percentage of mature cells ([4]; 7 days, 10 μM): dropped to control levels

CC(C)N1CCN(C(=O)COc2ccc(-c3ccccc3)cc2)CC1 [Compound A-7, 1-(Biphenyl-4-yloxy)acetyl-4-isopropylpiperazine]
effect on myelin protein expression / remyelination enhancement [1]: recovery of myelin protein expression | cell toxicity and viability [2]: did not show significant detrimental effects | remyelination effect (Black and Gold stain, corpus callosum) [3]: highly significant remyelination effect; also recorded: enhance remyelination | percentage of differentiated cells compared to A treated cells ([4]; 10 μM): 159.1% | concentration at which induction of oligodendrocyte differentiation reached maximum levels ([4]; 48 hrs and 7 days treatment): 0.1 µM | cell morphology after long-term exposure ([4]; 7 days after treatment): formation of long-thick processes and major membranous structures | Differentiated Cells (IC, % of Control) ([4]; Table 3, 10 μM, 48 hrs, 10 µM): 296.1 % of Control | Differentiated Cells (IC, % of Control) ([4]; Table 3, 10 μM, 48 hrs, listed as drawing 48, 10 µM): 296.1 ± 19 n = 4; p <0.05 % of Control | Differentiated Cells (IC, % of Control) ([4]; Table 4, 1 μM, 1 µM): 343 % of Control and 343.2 ± 52.3 % of Control | Differentiated Cells (IC, % of Control) ([4]; Table 4, 10 μM): 296 ± 38.06 % of Control
